In patent US20230355613A1, “METHODS FOR TREATING PANCREATIC DUCTAL ADENOCARCINOMA” (HEALTH RESEARCH, INC., priority 2022, published 2023):

What was measured:
Panc1 cells [1] = experiment: RNA-seq of JTE-607 treated cells (APA, read-through, differential expression analysis); type: cell-based, human; conditions: Panc1, H3F3A and H2AZ1 normalized counts
Source text: mRNA regulation is distinct between knockdown and chemical inhibition of CPSF3. Because JTE-607 inhibits CPSF3 catalytic activity without inducing target degradation, it was sought to understand if the function of CPSF3 is distinct between knockdown and inhibition. As CPSF3 is an integral component of the polyadenylation complex and the histone cleavage complex (HCC), it was hypothesized that CPSF3 disruption would dysregulate both alternative polyadenylation (APA) and histone mRNA processing. To test this hypothesis, CPSF3 knockdown and JTE-607 treated Panc1 cells were subjected to RNA-sequencing (RNA-seq). […] In the CPSF3 knockdown cells, PolyAMiner-Bulk detected 85 significant DAGs, of which 43 genes underwent 3′UTR lengthening (PolyAIndex>0.5; Padj<0.05) and 42 genes underwent 3′UTR shortening (PolyAIndex <−0.5; Padj<0.05) (FIG. 3A). In the CPSF3 inhibition model, PolyAMiner-Bulk detected 174 significant DAGs, of which 138 underwent 3′UTR lengthening (PolyAIndex>0.5; Padj<0.05) and 36 genes underwent 3′UTR shortening (PolyAIndex <−0.5; Padj<0.05) (FIG. 3B). […]
JTE-607 inhibits expression of replication-dependent histones. JTE-607 induces global transcriptional read-through in Ewing's sarcoma cells. Therefore, it was asked whether JTE-607 would similarly induce global read-through in PDAC cells by applying the ARTDeco algorithm. […]

PDAC cell lines = experiment: Clonogenic growth (colony formation) assay; type: cell-based, human; conditions: all PDAC cell lines tested, 11-14 days
Source text: PDAC cells are sensitive to chemical inhibition of CPSF3. CPSF3 was recently identified as the target for the small molecule JTE-607. JTE-607 is a prodrug that, when metabolized by the ester hydrolyzing enzyme carboxylesterase 1 (CES1), binds to CPSF3 and inhibits its catalytic activity, impairing the processing of newly synthesized mRNAs. As genetic depletion of CPSF3 attenuated PDAC cell proliferation (FIG. 1), it 2as hypothesized that pharmacologic inhibition of CPSF3 with JTE-607 could represent a novel therapeutic approach in PDAC. The sensitivity of multiple human pancreatic cell lines, both non-transformed and PDAC, to JTE-607 in a 72-hour dose-response cell viability assay was examined. […] To examine if sensitivity to CPSF3 inhibition was associated with proliferation rate, the relationship between cell line doubling time and JTE-607 sensitivity was assessed. […] Next, the effect of JTE-607 on cell proliferation by treating cells with increasing concentrations of JTE-607 and assessing cell viability in a time-dependent fashion (FIGS. 2C-2E) was determined. […]
JTE-607 studies. […] The next day, JTE-607 was titrated over a range of concentrations using the Tecan D300e Digital Dispenser and cell viability was measured 72 hours post drug titration using a CellTiter-Glo Luminescent Cell Viability Assay Kit (Promega). […] Colony area was measured using ImageJ software. […]

xenograft models = xenograft models in vivo; cited from earlier work
Panc1 cells [2] = experiment: Western blot of histone protein levels; type: cell-based, human; conditions: dose- and time-dependent

CCOC(=O)[C@H](Cc1ccccc1)NC(=O)c1cc(Cl)c(OCCN2CCN(C)CC2)c(Cl)c1O [JTE-607]
expression of RI histones (Panc1 cells [1]): not downregulated
colony formation (PDAC cell lines): significantly decreased colony formation
survival of tumor-bearing mice (xenograft models): prolongs survival
H3 and H2B protein levels (Panc1 cells [2]): reduced both H3 and H2B protein levels
